Values belong to the compound of their own block, whether it stands above or below them. The source made the active and inactive calls. The calls are words filed in the database; no cut-off is given here.
Tests used:
[1] = AUC (0 to 24 hrs) in ICR mouse at 2 mg/kg, iv by LC-MS/MS analysis; format: ADME, organism-based; parameters: dose 2 mg/kg, time < 24 hr, route intravenous; details: in vivo
[2] = Clearance in ICR mouse at 2 mg/kg, iv by LC-MS/MS analysis; format: ADME, organism-based; details: in vivo
[3] = Volume of distribution at steady state in ICR mouse at 2 mg/kg, iv by LC-MS/MS analysis; format: ADME, organism-based; details: in vivo, read-out: Vdss
[4] = Half life in ICR mouse at 2 mg/kg, iv by LC-MS/MS analysis; format: ADME, organism-based; details: in vivo
[5] = AUC (0 to 24 hrs) in ICR mouse at 10 mg/kg, po administered via gavage by LC-MS/MS analysis; format: ADME, organism-based; parameters: time < 24 hr, dose 10 mg/kg, route oral; details: in vivo
[6] = Cmax in ICR mouse at 10 mg/kg, po administered via gavage by LC-MS/MS analysis; format: ADME, organism-based; parameters: dose 10 mg/kg, route oral; details: in vivo
[7] = Tmax in ICR mouse at 10 mg/kg, po administered via gavage by LC-MS/MS analysis; format: ADME, organism-based; details: in vivo
[8] = Half life in ICR mouse at 10 mg/kg, po administered via gavage by LC-MS/MS analysis; format: ADME, organism-based; details: in vivo
[9] = Oral bioavailability in ICR mouse at 10 mg/kg administered via gavage by LC-MS/MS analysis; format: ADME, organism-based; details: in vivo
[10] = Protein binding in mouse plasma; format: ADME, cell-free; details: read-out: PPB (converted)
[11] = tested on: Mus musculus; assay: Toxicity in C57BL/6J mouse assessed as effect on behavior at 10 mg/kg administered for 7 days via oral gavage; format: organism-based; details: in vivo, 168 h
[12] = tested on: Mus musculus; assay: Toxicity in C57BL/6J mouse assessed as effect on food consumption at 10 mg/kg administered for 7 days via oral gavage; format: organism-based; details: in vivo, 168 h
[13] = tested on: Mus musculus; assay: Toxicity in C57BL/6J mouse assessed as effect on WBC count in blood at 10 mg/kg administered for 7 days via oral gavage; format: organism-based; details: in vivo, 168 h
[14] = tested on: Mus musculus; assay: Toxicity in C57BL/6J mouse assessed as effect on lymphocyte count in blood at 10 mg/kg administered for 7 days via oral gavage; format: organism-based; details: in vivo, 168 h
[15] = tested on: Mus musculus; assay: Toxicity in C57BL/6J mouse assessed as body weight loss at 10 mg/kg administered for 7 days via oral gavage; format: organism-based; details: in vivo, 168 h
[16] = tested on: Mus musculus; assay: Toxicity in C57BL/6J mouse assessed as effect on RBC count in blood at 10 mg/kg administered for 7 days via oral gavage; format: organism-based; details: in vivo, 168 h
[17] = tested on: Mus musculus; assay: Toxicity in C57BL/6J mouse assessed as effect on hemoglobin content in blood at 10 mg/kg administered for 7 days via oral gavage; format: organism-based; details: in vivo, 168 h
[18] = tested on: Mus musculus; assay: Toxicity in C57BL/6J mouse assessed as effect on platelet count in blood at 10 mg/kg administered for 7 days via oral gavage; format: organism-based; details: in vivo, 168 h
[19] = tested on: Mus musculus; assay: Toxicity in C57BL/6J mouse assessed as effect on heart weight at 10 mg/kg administered for 7 days via oral gavage; format: organism-based; details: in vivo, 168 h
[20] = tested on: Mus musculus; assay: Toxicity in C57BL/6J mouse assessed as effect on liver weight at 10 mg/kg administered for 7 days via oral gavage; format: organism-based; details: in vivo, 168 h
[21] = tested on: Mus musculus; assay: Toxicity in C57BL/6J mouse assessed as effect on spleen weight at 10 mg/kg administered for 7 days via oral gavage; format: organism-based; details: in vivo, 168 h
[22] = tested on: Mus musculus; assay: Toxicity in C57BL/6J mouse assessed as effect on lung weight at 10 mg/kg administered for 7 days via oral gavage; format: organism-based; details: in vivo, 168 h
[23] = tested on: Mus musculus; assay: Toxicity in C57BL/6J mouse assessed as effect on kidney weight at 10 mg/kg administered for 7 days via oral gavage; format: organism-based; details: in vivo, 168 h
[24] = tested on: Mus musculus; assay: Toxicity in C57BL/6J mouse assessed as effect on colon architecture at 10 mg/kg administered via oral gavage for 7 days by hematoxylin and eosin staining-based method; format: organism-based; details: in vivo, 168 h
[25] = tested on: Mus musculus; assay: Toxicity in C57BL/6J mouse assessed as effect on stomach architecture at 10 mg/kg administered via oral gavage for 7 days by hematoxylin and eosin staining-based method; format: organism-based; details: in vivo, 168 h
[26] = tested on: Mus musculus; assay: Toxicity in C57BL/6J mouse assessed as effect on liver architecture at 10 mg/kg administered via oral gavage for 7 days by hematoxylin and eosin staining-based method; format: organism-based; details: in vivo, 168 h
[27] = tested on: Mus musculus; assay: Toxicity in C57BL/6J mouse assessed as effect on spleen architecture at 10 mg/kg administered via oral gavage for 7 days by hematoxylin and eosin staining-based method; format: organism-based; details: in vivo, 168 h
[28] = molecular target: T1, Protein-serine O-palmitoleoyltransferase porcupine (Homo sapiens) (UniProt Q9H237); assay: Inhibition of porcupine in HEK293T cells transfected with pLibin-WNT3A plasmid assessed as reduction in Wnt3A secretion into cell culture medium at 100 nM after 48 hrs by Western blot method; format: cell-based
T1 sequence (whole entry): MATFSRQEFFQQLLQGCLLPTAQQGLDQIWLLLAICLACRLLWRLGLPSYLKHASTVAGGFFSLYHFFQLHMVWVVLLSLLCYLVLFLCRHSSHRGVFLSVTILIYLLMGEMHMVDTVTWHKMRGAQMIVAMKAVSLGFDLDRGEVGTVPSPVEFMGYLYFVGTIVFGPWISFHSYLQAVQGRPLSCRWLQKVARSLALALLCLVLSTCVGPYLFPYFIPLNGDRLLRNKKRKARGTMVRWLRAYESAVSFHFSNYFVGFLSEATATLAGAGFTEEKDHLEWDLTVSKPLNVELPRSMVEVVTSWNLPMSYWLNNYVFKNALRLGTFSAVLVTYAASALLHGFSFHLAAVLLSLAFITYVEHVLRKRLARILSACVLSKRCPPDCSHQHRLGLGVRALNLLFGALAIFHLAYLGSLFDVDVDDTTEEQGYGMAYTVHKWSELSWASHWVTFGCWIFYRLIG

[29] = molecular target: T1, Protein-serine O-palmitoleoyltransferase porcupine (Homo sapiens); assay: Inhibition of porcupine in HEK293 cells transfected with pLibin-WNT3A plasmid assessed as downregulation of disheveled 2 phosphorylation at 100 nM after 48 hrs by Western blot analysis; format: cell-based
[30] = molecular target: T1, Protein-serine O-palmitoleoyltransferase porcupine (Homo sapiens); assay: Inhibition of porcupine in HEK293 cells transfected with pLibin-WNT3A plasmid assessed as downregulation of LRP6 phosphorylation at 100 nM after 48 hrs by Western blot analysis; format: cell-based
[31] = molecular target: T1, Protein-serine O-palmitoleoyltransferase porcupine (Homo sapiens); assay: Inhibition of porcupine-mediated Wnt/beta-catenin signaling in human PA1 cells assessed as downregulation of Axin2 mRNA expression after 24 hrs by real-time PCR analysis; format: cell-based
[32] = molecular target: T1, Protein-serine O-palmitoleoyltransferase porcupine (Homo sapiens); assay: Inhibition of porcupine-mediated Wnt/beta-catenin signaling in human PA1 cells assessed as downregulation of disheveled 2 phosphorylation after 48 hrs by Western blot analysis; format: cell-based
[33] = molecular target: T1, Protein-serine O-palmitoleoyltransferase porcupine (Homo sapiens); assay: Inhibition of porcupine-mediated Wnt/beta-catenin signaling in human PA1 cells assessed as downregulation of LRP6 phosphorylation after 48 hrs by Western blot analysis; format: cell-based
[34] = molecular target: Protein smoothened (Mus musculus) (UniProt P56726); assay: (§1) Inhibition of smo-mediated hedgehog signaling pathway in mouse NIH3T3 cells expressing GRE-Luc reporter gene assessed as inhibition of SAG-induced GRE-Luc reporter activity after 48 hrs by luminescence assay; format: functional, cell-based
[35] = molecular target: Protein smoothened (Mus musculus, UniProt P56726); assay: as §1; format: functional, cell-based
[36] = tested on: Astrocyte; assay: Cytotoxicity against primary astrocytes (unknown origin) up to 20 uM after 24 hrs by MTT assay; format: cell-based
[37] = tested on: GES1; assay: Cytotoxicity against human GES-1 cells up to 20 uM by Cell Titer-Glo assay; format: cell-based
[38] = molecular target: Protein smoothened (Mus musculus) (UniProt P56726); assay: Inhibition of smo-mediated hedgehog signaling pathway in mouse NIH3T3-Luc cells assessed as downregulation of 1 to 100 nM SAG-induced Gli luciferase activity after 48 hrs luminescence assay; format: functional, cell-based
[39] = molecular target: Protein smoothened (Homo sapiens, UniProt Q99835); assay: Inhibition of Bodipy-cyclopamine binding to human Smo expressed in human U2OS cells after 2 hrs by high content fluorescence imaging analysis; format: cell-based
[40] = molecular target: Protein smoothened (Mus musculus) (UniProt P56726); assay: Inhibition of smo-mediated hedgehog signaling pathway in mouse NIH3T3-Luc cells assessed as downregulation of Gli mRNA expression after 48 hrs by real-time PCR analysis; format: functional, cell-based
[41] = tested on: HEK-293T; assay: Effect on Wnt3A levels in HEK293T cells transfected with pLibin-WNT3A plasmid at 100 nM after 48 hrs by Western blot method; format: functional, cell-based; details: Homo sapiens
[42] = tested on: Mus musculus; assay: Time at which blood concentration stays above in vitro IC50 for porcupine-mediated Wnt signaling and smo-mediated hedgehog signaling pathway in ICR mouse at 10 mg/kg, po administered via gavage by LC-MS/MS analysis; format: ADME, organism-based; details: in vivo
[43] = molecular target: T2, Protein-serine O-palmitoleoyltransferase porcupine (Mus musculus, UniProt Q9JJJ7); assay: (§2) Inhibition of porcupine in mouse L Wnt3A cells co-cultured with HEK293 cells assessed as suppression of Wnt signaling after 48 hrs by Super-top flash reporter gene assay; format: cell-based
T2 sequence (Q9JJJ7 whole entry): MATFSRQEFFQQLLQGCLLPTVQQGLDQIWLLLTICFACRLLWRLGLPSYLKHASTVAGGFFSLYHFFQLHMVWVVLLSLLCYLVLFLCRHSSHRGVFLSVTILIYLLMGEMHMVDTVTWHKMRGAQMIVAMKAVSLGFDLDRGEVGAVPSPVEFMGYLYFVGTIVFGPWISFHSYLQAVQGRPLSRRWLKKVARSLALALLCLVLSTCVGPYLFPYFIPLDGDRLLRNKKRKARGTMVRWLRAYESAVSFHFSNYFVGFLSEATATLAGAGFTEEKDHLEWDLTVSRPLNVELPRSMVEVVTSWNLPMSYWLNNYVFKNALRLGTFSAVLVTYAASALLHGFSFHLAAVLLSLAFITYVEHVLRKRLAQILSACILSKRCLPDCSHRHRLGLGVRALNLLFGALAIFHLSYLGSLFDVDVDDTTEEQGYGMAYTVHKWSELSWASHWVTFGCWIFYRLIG

[44] = molecular target: T3, Protein-serine O-palmitoleoyltransferase porcupine (Mus musculus) (UniProt Q9JJJ7); assay: as §2; format: cell-based
T3 sequence (whole entry): T2 sequence (Q9JJJ7 whole entry)

[45] = molecular target: Protein smoothened (Mus musculus) (UniProt P56726); assay: Inhibition of smo-mediated hedgehog signaling pathway in mouse NIH3T3-Luc cells assessed as downregulation of Gli mRNA expression at 1 uM after 48 hrs by real-time PCR analysis; format: functional, cell-based

Protein smoothened (Mus musculus, UniProt P56726), sequence (P56726 whole entry): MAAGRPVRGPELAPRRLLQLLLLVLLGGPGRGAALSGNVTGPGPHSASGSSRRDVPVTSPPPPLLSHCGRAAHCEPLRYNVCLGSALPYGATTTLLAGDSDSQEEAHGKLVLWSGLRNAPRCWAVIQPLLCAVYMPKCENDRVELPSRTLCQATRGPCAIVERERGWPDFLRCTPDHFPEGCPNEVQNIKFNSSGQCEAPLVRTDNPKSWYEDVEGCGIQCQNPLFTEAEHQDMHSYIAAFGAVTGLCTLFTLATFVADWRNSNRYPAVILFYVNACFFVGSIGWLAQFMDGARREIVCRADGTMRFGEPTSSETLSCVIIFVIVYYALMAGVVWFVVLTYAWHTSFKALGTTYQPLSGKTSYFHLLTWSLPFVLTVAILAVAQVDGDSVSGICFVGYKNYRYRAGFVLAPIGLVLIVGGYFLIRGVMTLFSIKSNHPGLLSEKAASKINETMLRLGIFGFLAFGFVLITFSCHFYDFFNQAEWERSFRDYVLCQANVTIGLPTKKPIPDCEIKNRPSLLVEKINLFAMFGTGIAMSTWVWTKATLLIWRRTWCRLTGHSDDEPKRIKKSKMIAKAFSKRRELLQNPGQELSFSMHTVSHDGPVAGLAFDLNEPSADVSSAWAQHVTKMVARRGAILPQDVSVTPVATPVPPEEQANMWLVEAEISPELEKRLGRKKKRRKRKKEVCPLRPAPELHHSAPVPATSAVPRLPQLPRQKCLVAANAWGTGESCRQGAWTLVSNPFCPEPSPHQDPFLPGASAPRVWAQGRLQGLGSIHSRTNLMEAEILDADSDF
Protein smoothened (Mus musculus), sequence (P56726 whole entry): as above
Protein smoothened (Homo sapiens, UniProt Q99835), sequence (Q99835 whole entry): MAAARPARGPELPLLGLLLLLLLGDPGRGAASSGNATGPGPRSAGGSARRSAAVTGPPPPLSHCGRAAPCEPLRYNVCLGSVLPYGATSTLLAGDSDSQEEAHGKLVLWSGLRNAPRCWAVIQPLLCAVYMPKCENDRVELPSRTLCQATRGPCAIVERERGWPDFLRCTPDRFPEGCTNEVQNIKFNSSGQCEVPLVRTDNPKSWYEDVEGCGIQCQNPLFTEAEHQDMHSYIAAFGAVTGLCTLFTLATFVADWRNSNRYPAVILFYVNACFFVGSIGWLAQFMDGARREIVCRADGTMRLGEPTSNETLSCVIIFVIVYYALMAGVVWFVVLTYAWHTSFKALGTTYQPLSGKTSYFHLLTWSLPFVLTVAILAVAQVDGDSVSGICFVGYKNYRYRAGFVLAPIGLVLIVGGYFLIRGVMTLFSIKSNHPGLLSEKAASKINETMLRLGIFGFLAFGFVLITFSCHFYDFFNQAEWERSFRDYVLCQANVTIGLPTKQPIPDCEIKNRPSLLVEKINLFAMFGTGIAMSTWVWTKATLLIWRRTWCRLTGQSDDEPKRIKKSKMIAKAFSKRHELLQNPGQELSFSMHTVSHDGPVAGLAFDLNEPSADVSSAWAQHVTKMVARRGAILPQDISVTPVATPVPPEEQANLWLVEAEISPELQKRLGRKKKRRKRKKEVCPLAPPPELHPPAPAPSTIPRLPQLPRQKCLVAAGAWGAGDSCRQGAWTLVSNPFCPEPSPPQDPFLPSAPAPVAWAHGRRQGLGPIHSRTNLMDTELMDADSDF

SMILES: Cc1cc(-c2ncc(CNC(=O)c3ccc4c(c3)[nH]c3ccccc34)cc2F)ccn1
AUC(0-t) at 24 h [1]: 5460 ng·h/mL
clearance [2]: 6.1 mL/min/kg
Vd [3]: 0.4 L/kg
half-life [4]: 1.1 h
AUC(0-t) at 24 h [5]: 13500 ng·h/mL
Cmax [6]: 5140 ng/mL
Tmax [7]: 0.5 h
half-life [8]: 2.1 h
bioavailability [9]: 49%
fraction unbound [10]: 0.007
Activity [11]: Non-Toxic
Activity [12]: Non-Toxic
Activity [13]: Non-Toxic
Activity [14]: Non-Toxic
Activity [15]: Non-Toxic
Activity [16]: Non-Toxic
Activity [17]: Non-Toxic
Activity [18]: Non-Toxic
Activity [19]: Non-Toxic
Activity [20]: Non-Toxic
Activity [21]: Non-Toxic
Activity [22]: Non-Toxic
Activity [23]: Non-Toxic
Activity [24]: Non-Toxic
Activity [25]: Non-Toxic
Activity [26]: Non-Toxic
Activity [27]: Non-Toxic
inhibition [28]: Active
inhibition [29]: Active
inhibition [30]: Active
inhibition [31]: Active
inhibition [32]: Active
inhibition [33]: Active
inhibition [34]: Dose-dependent effect
IC50 [35]: 71 nM
Activity [36]: Non-Toxic
Activity [37]: Non-Toxic
inhibition [38]: Active
IC50 [39]: > 10000 nM
inhibition [40]: Dose-dependent effect
Activity [41]: inactive
Time [42]: 10 h

SMILES: Cc1cc(-c2ncc(CNC(=O)c3ccc4c(c3)Cc3ccccc3-4)cc2F)ccn1
IC50 [43]: 6.5 nM

SMILES: CS(=O)(=O)c1ccc(C(=O)Nc2ccc(Cl)c(-c3ccccn3)c2)c(Cl)c1
inhibition [44]: inactive
inhibition [28]: inactive
inhibition [31]: inactive
inhibition [32]: inactive
inhibition [33]: inactive

SMILES: Cc1cc(-c2ncc(CNC(=O)c3ccc4c(c3)oc3ccccc34)cc2F)ccn1
IC50 [43]: 2.1 nM

Continued, in another order:

IC50 [43]: 1.9 nM
IC50 [35]: 3660 nM
SMILES: COc1cc(CNC(=O)c2ccc3c(c2)[nH]c2ccccc23)cnc1-c1ccnc(C)c1

IC50 [43]: 0.72 nM
IC50 [35]: 1220 nM
SMILES: Cc1cc(-c2ncc(CNC(=O)c3ccc4c(c3)[nH]c3ccccc34)cc2C#N)ccn1

inhibition [28]: Active
inhibition [29]: Active
inhibition [30]: Active
inhibition [31]: Active
inhibition [32]: Active
inhibition [33]: Active
inhibition [34]: inactive
inhibition [45]: inactive
SMILES: Cc1cc(-c2ncc(CC(=O)Nc3ccc(-c4cnccn4)cn3)cc2C)ccn1
Activity [41]: inactive

Source: ChEMBL document CHEMBL4196048, “Discovery and characterization of a potent Wnt and hedgehog signaling pathways dual inhibitor” (Eur J Med Chem, 2018)
